Reference: ChEMBL document CHEMBL3351396, “Synthesis of the novel elemonic acid derivatives as Pin1 inhibitors” (Bioorg Med Chem Lett, 2014)

target: Peptidyl-prolyl cis-trans isomerase NIMA-interacting 1 (Homo sapiens, UniProt Q13526); experiment: Inhibition of Pin1 (unknown origin) using Suc-Ala-Glu-Pro-Phe-4-nitroanilide as substrate after 30 mins by protease-coupled assay
Sequence (Q13526 whole entry): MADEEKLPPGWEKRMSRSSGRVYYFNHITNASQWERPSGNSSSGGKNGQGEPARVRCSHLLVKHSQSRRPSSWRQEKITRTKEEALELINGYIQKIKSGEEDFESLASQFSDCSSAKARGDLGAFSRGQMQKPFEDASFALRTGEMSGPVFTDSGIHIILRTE

Row | Structure (SMILES) | IC50 [µM]
1 | CC1(C)C(=O)CC[C@]2(C)C3=C(C(=O)C[C@@H]12)[C@@]1(C)CC[C@@H]([C@H](CCC(=O)O)C(=O)OCc2ccccc2)[C@]1(C)CC3 | > 40
2 | CC(C)=CCC[C@H](C(=O)O)[C@@H]1CC[C@]2(C)C3=C(CC[C@@]12C)[C@@]1(C)CCC(=O)C(C)(C)[C@@H]1CC3 | 13.2
3 | CC1(C)C(=O)CC[C@]2(C)C3=C(CC[C@@H]12)[C@@]1(C)CC[C@@H]([C@H](CCc2nnn[nH]2)C(=O)OCc2ccccc2)[C@]1(C)CC3 | 2.6
4 | CN1CCN(C(=O)CC[C@H](C(=O)OCc2ccccc2)[C@@H]2CC[C@]3(C)C4=C(CC[C@@]23C)[C@@]2(C)CCC(=O)C(C)(C)[C@@H]2CC4)CC1 | 31.5
5 | CN(C)C(=O)CC[C@H](C(=O)OCc1ccccc1)[C@@H]1CC[C@]2(C)C3=C(CC[C@@]12C)[C@@]1(C)CCC(=O)C(C)(C)[C@@H]1CC3 | 0.83
6 | CC1(C)C(=O)CC[C@]2(C)C3=C(CC[C@@H]12)[C@@]1(C)CC[C@@H]([C@H](CCC(=O)O)C(=O)OCc2ccccc2)[C@]1(C)CC3=O | 1.47
7 | CC1(C)C(=O)CC[C@]2(C)C3=C(CC[C@@H]12)[C@@]1(C)CC[C@@H]([C@H](CCC(=O)O)C(=O)OCc2ccccc2)[C@]1(C)CC3 | 3.68
8 | CC(C)=CCC[C@H](C(=O)OCc1ccccc1)[C@@H]1CC[C@]2(C)C3=C(CC[C@@]12C)[C@@]1(C)C/C(=C\C(=O)N2CCN(C)CC2)C(=O)C(C)(C)[C@@H]1CC3 | 32.3
9 | CC(C)=CCC[C@H](C(=O)OCc1ccccc1)[C@@H]1CC[C@]2(C)C3=C(CC[C@@]12C)[C@@]1(C)C/C(=C\C(=O)N2CCNCC2)C(=O)C(C)(C)[C@@H]1CC3 | > 40
10 | CC1(C)C(=O)CC[C@]2(C)C3=C(CC[C@@H]12)[C@@]1(C)CC[C@@H]([C@H](CCC(=O)N2CCNCC2)C(=O)OCc2ccccc2)[C@]1(C)CC3 | > 40

Results, then the molecule that gave them:

Row | IC50 [µM] | Structure (SMILES)
11 | 14.1 | CC1(C)C(=O)CC[C@]2(C)C3=C(CC[C@@H]12)[C@@]1(C)CC[C@@H]([C@H](CCC#N)C(=O)OCc2ccccc2)[C@]1(C)CC3
12 | > 40 | CC1(C)C(=O)CC[C@]2(C)C3=C(CC[C@@H]12)[C@@]1(C)CC[C@@H]([C@H](CCC(N)=O)C(=O)OCc2ccccc2)[C@]1(C)CC3
13 | 0.57 | CC(C)=CCC[C@H](C(=O)OCc1ccccc1)[C@@H]1CC[C@]2(C)C3=C(CC[C@@]12C)[C@@]1(C)C/C(=C\C(=O)O)C(=O)C(C)(C)[C@@H]1CC3
14 | > 40 | COC(=O)CC[C@H](C(=O)OCc1ccccc1)[C@@H]1CC[C@]2(C)C3=C(CC[C@@]12C)[C@@]1(C)CCC(=O)C(C)(C)[C@@H]1CC3
